Reference: US9932340B2, “Substituted indoles” (AbbVie Inc., priority 2014, dated 2018)

The compounds below were run against SUV420H1 enzyme (Homo sapiens, UniProt Q4FZB7) (assay: TR-FRET SAH SUV420H1 enzyme inhibition assay). Details: Histone Peptide H4(8-30)me1 and SAM, overnight at room temp, TR-FRET detection of SAH, read-out: TR-FRET SAH_SUV420H1 IC50.
Type: biochemical
Summary of the method: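 SUV420H1 (90 nM) preincubated 30 min with compound (3-fold dilutions, 50 to 0.00075 μM), then H4(8-30)me1 peptide 5 nM and SAM 4 nM added, overnight at room temp. SAH product detected by TR-FRET with Tb anti-SAH antibody and Oregon Green-SAH in RIPA buffer, 4 h; IC50 from Hill fit, asymptotes fixed 0-100%.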

Sequence of SUV420H1 enzyme (Q4FZB7 whole entry): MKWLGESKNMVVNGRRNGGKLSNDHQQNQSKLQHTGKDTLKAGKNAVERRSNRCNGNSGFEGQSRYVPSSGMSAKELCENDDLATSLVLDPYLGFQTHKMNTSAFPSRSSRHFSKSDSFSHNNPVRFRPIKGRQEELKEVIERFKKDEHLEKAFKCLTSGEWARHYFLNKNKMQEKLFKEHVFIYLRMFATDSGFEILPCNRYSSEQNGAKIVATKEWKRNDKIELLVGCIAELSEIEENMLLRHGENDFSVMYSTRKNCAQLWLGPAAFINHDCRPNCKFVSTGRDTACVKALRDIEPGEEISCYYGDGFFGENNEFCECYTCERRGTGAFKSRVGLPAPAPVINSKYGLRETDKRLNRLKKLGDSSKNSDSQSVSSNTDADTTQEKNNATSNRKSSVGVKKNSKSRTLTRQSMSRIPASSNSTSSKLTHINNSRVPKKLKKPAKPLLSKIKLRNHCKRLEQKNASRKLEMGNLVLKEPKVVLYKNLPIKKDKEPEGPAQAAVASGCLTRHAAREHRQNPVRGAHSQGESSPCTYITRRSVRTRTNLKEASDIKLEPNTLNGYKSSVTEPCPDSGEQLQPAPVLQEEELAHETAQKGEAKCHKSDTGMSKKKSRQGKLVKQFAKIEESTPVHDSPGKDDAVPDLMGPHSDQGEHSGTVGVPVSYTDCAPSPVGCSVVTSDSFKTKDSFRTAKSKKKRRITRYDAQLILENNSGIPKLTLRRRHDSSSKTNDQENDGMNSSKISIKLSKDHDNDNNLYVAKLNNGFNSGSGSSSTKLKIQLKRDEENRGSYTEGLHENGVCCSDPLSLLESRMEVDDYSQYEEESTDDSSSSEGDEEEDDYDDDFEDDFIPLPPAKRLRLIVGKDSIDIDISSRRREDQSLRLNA

Row | IC50 | SMILES
1 | 39 nM | N#Cc1ccc(C(=O)NCc2cc3cc(Cl)cc(Cn4cnc5c(N)ncnc54)c3[nH]2)c(Cl)c1 [Example 276, N-({7-[(6-amino-9H-purin-9-yl)methyl]-5-chloro-1H-indol-2-yl}methyl)-2-chloro-4-cyanobenzamide]
2 | 49.3 nM | CC(=O)N1CC=C(c2cc(Cn3cnc4c(N)ncnc43)c3[nH]c(CNC(=O)c4ccc(C#N)cc4Cl)cc3c2)CC1 [Example 279, N-({5-(1-acetyl-1,2,3,6-tetrahydropyridin-4-yl)-7-[(6-amino-9H-purin-9-yl)methyl]-1H-indol-2-yl}methyl)-2-chloro-4-cyanobenzamide]
3 | 36900 nM | CNC(=O)CCc1c[nH]c2c(Cn3cnc4c(N)ncnc43)cccc12 [Example 2, 3-{7-[(6-amino-9H-purin-9-yl)methyl]-1H-indol-3-yl}-N-methylpropanamide]
4 | 747 nM | Cn1ncc2ccc(C(=O)NCc3cc4cc(Cl)cc(Cn5cnc6c(N)ncnc65)c4[nH]3)cc21 [Example 360, N-({7-[(6-amino-9H-purin-9-yl)methyl]-5-chloro-1H-indol-2-yl}methyl)-1-methyl-1H-indazole-6-carboxamide]
5 | 1460 nM | Nc1nc(C2CC2)nc2c1ncn2Cc1cccc2cc[nH]c12 [Example 6, 2-cyclopropyl-9-(1H-indol-7-ylmethyl)-9H-purin-6-amine]
6 | 4080 nM | COc1ccc(CCC(=O)NCc2cc3cc(Cl)cc(Cn4cnc5c(N)ncnc54)c3[nH]2)cc1 [Example 315, N-({7-[(6-amino-9H-purin-9-yl)methyl]-5-chloro-1H-indol-2-yl}methyl)-3-(4-methoxyphenyl)propanamide]
7 | 12400 nM | Cc1[nH]c2ccc(C(=O)NCc3cc4cc(Cl)cc(Cn5cnc6c(N)ncnc65)c4[nH]3)cc2c1C [Example 375, N-({7-[(6-amino-9H-purin-9-yl)methyl]-5-chloro-1H-indol-2-yl}methyl)-2,3-dimethyl-1H-indole-5-carboxamide]
8 | 691 nM | CCc1onc(C)c1C(=O)NCc1cc2cc(Cl)cc(Cn3cnc4c(N)ncnc43)c2[nH]1 [Example 185, N-({7-[(6-amino-9H-purin-9-yl)methyl]-5-chloro-1H-indol-2-yl}methyl)-5-ethyl-3-methyl-1,2-oxazole-4-carboxamide]
9 | 87.8 nM | N#Cc1ccc(C(=O)NCc2cc3cc(C4=CCC(F)(F)CC4)cc(Cn4cnc5c(N)ncnc54)c3[nH]2)c(F)c1 [Example 287, N-({7-[(6-amino-9H-purin-9-yl)methyl]-5-(4,4-difluorocyclohex-1-en-1-yl)-1H-indol-2-yl}methyl)-4-cyano-2-fluorobenzamide]
10 | 623 nM | CCc1ccccc1C(=O)NCc1cc2cc(Cl)cc(Cn3cnc4c(N)ncnc43)c2[nH]1 [Example 296, N-({7-[(6-amino-9H-purin-9-yl)methyl]-5-chloro-1H-indol-2-yl}methyl)-2-ethylbenzamide]
11 | 87.5 nM | Cc1noc(C)c1C(=O)NCc1cc2cc(-c3ccc(C(=O)N(C)C)cc3)cc(Cn3cnc4c(N)ncnc43)c2[nH]1 [Example 176, N-({7-[(6-amino-9H-purin-9-yl)methyl]-5-[4-(dimethylcarbamoyl)phenyl]-1H-indol-2-yl}methyl)-3,5-dimethyl-1,2-oxazole-4-carboxamide]
12 | 607 nM | Cc1cccc(C)c1C(=O)NCc1cc2cc(Cl)cc(Cn3cnc4c(N)ncnc43)c2[nH]1 [Example 295, N-({7-[(6-amino-9H-purin-9-yl)methyl]-5-chloro-1H-indol-2-yl}methyl)-2,6-dimethylbenzamide]
13 | 3310 nM | COc1cccc(CNCc2cc3cc(Cl)cc(Cn4cnc5c(N)ncnc54)c3[nH]2)c1 [Example 249, 9-[(5-chloro-2-{[(3-methoxybenzyl)amino]methyl}-1H-indol-7-yl)methyl]-9H-purin-6-amine]
14 | 354 nM | CN(C)C(=O)c1ccc(-c2cc(Cn3cnc4c(N)ncnc43)c3[nH]c(CN)cc3c2)cc1 [Example 47, 4-{2-(aminomethyl)-7-[(6-amino-9H-purin-9-yl)methyl]-1H-indol-5-yl}-N,N-dimethylbenzamide]
15 | 141 nM | CC(=O)N1CCC(c2cc(Cn3cnc4c(N)ncnc43)c3[nH]c(CNC(=O)c4ccc(C#N)cc4Cl)cc3c2)CC1 [Example 281, N-({5-(1-acetylpiperidin-4-yl)-7-[(6-amino-9H-purin-9-yl)methyl]-1H-indol-2-yl}methyl)-2-chloro-4-cyanobenzamide]
16 | 14200 nM | Nc1ncnc2c1ncn2Cc1cc(Cl)cc2cc(CNC(=O)c3ccc[nH]3)[nH]c12 [Example 146, N-({7-[(6-amino-9H-purin-9-yl)methyl]-5-chloro-1H-indol-2-yl}methyl)-1H-pyrrole-2-carboxamide]
17 | 889 nM | Cc1nc2ccc(C(=O)NCc3cc4cc(Cl)cc(Cn5cnc6c(N)ncnc65)c4[nH]3)cc2s1 [Example 358, N-({7-[(6-amino-9H-purin-9-yl)methyl]-5-chloro-1H-indol-2-yl}methyl)-2-methyl-1,3-benzothiazole-6-carboxamide]

Row | IC50 | SMILES
18 | 1690 nM | CC(C)c1noc2ncc(C(=O)NCc3cc4cc(Cl)cc(Cn5cnc6c(N)ncnc65)c4[nH]3)cc12 [Example 370, N-({7-[(6-amino-9H-purin-9-yl)methyl]-5-chloro-1H-indol-2-yl}methyl)-3-(propan-2-yl)[1,2]oxazolo[5,4-b]pyridine-5-carboxamide]
19 | 53.2 nM | Cc1nnccc1C(=O)NCc1cc2cc(C3=CCN(C(=O)OC(C)(C)C)CC3)cc(Cn3cnc4c(N)ncnc43)c2[nH]1 [Example 204, tert-butyl 4-{7-[(6-amino-9H-purin-9-yl)methyl]-2-({[(3-methylpyridazin-4-yl)carbonyl]amino}methyl)-1H-indol-5-yl}-3,6-dihydropyridine-1(2H)-carboxylate]
20 | 88.9 nM | Cc1noc(C)c1C(=O)NCc1cc2cc(-c3ccc(S(N)(=O)=O)cc3)cc(Cn3cnc4c(N)ncnc43)c2[nH]1 [Example 166, N-({7-[(6-amino-9H-purin-9-yl)methyl]-5-(4-sulfamoylphenyl)-1H-indol-2-yl}methyl)-3,5-dimethyl-1,2-oxazole-4-carboxamide]
21 | 1210 nM | NCc1cc2cc(-c3ccccc3F)cc(Cn3cnc4c(N)ncnc43)c2[nH]1 [Example 27, 9-{[2-(aminomethyl)-5-(2-fluorophenyl)-1H-indol-7-yl]methyl}-9H-purin-6-amine]
22 | 8160 nM | Nc1ncnc2c1ncn2Cc1cc(Cl)cc2cc(CNC(=O)C3CCOC3)[nH]c12 (stereo not shown) [Example 114, N-({7-[(6-amino-9H-purin-9-yl)methyl]-5-chloro-1H-indol-2-yl}methyl)tetrahydrofuran-3-carboxamide]
23 | 2800 nM | Cc1cccc(C)c1CNCc1cc2cc(Cl)cc(Cn3cnc4c(N)ncnc43)c2[nH]1 [Example 290, 9-[(5-chloro-2-{[(2,6-dimethylbenzyl)amino]methyl}-1H-indol-7-yl)methyl]-9H-purin-6-amine]
24 | 8030 nM | Nc1ncnc2c1ncn2Cc1cc(Cl)cc2cc(CNC(=O)c3ccccc3C(=O)N3CCCC3)[nH]c12 [Example 320, N-({7-[(6-amino-9H-purin-9-yl)methyl]-5-chloro-1H-indol-2-yl}methyl)-2-(pyrrolidin-1-ylcarbonyl)benzamide]
25 | 20300 nM | NCc1cc2ccc(-c3ccccc3)c(Cn3cnc4c(N)ncnc43)c2[nH]1 [Example 61, 9-{[2-(aminomethyl)-6-phenyl-1H-indol-7-yl]methyl}-9H-purin-6-amine]
26 | > 50000 nM | CN(C)c1ccc(C(=O)NCc2cc3cc(Cl)cc(Cn4cnc5c(N)ncnc54)c3[nH]2)cc1 [Example 302, N-({7-[(6-amino-9H-purin-9-yl)methyl]-5-chloro-1H-indol-2-yl}methyl)-4-(dimethylamino)benzamide]
27 | 3540 nM | Nc1ncnc2c1ncn2Cc1cc(Cl)cc2cc(CNC(=O)c3cccc(Cl)c3)[nH]c12 [Example 222, N-({7-[(6-amino-9H-purin-9-yl)methyl]-5-chloro-1H-indol-2-yl}methyl)-3-chlorobenzamide]
28 | 3590 nM | Cc1noc(N)c1C(=O)NCc1cc2cc(Cl)cc(Cn3cnc4c(N)ncnc43)c2[nH]1 [Example 155, 5-amino-N-({7-[(6-amino-9H-purin-9-yl)methyl]-5-chloro-1H-indol-2-yl}methyl)-3-methyl-1,2-oxazole-4-carboxamide]
29 | 1750 nM | CS(=O)(=O)c1cc(CNCc2cc3cc(Cl)cc(Cn4cnc5c(N)ncnc54)c3[nH]2)ccc1F [Example 263, 9-{[5-chloro-2-({[4-fluoro-3-(methylsulfonyl)benzyl]amino}methyl)-1H-indol-7-yl]methyl}-9H-purin-6-amine]
30 | 2420 nM | Nc1ncnc2c1ncn2Cc1cc(Cl)cc2cc(CNC(=O)c3c(F)cccc3F)[nH]c12 [Example 228, N-({7-[(6-amino-9H-purin-9-yl)methyl]-5-chloro-1H-indol-2-yl}methyl)-2,6-difluorobenzamide]
31 | 24000 nM | Nc1ncnc2c1ncn2Cc1cc(Cl)cc2cc(CNC(=O)c3cn[nH]c3)[nH]c12 [Example 143, N-({7-[(6-amino-9H-purin-9-yl)methyl]-5-chloro-1H-indol-2-yl}methyl)-1H-pyrazole-4-carboxamide]
32 | 31900 nM | Nc1ncnc2c1ncn2Cc1cc(Cl)cc2cc(CNC(=O)CC3CCCCC3)[nH]c12 [Example 133, N-({7-[(6-amino-9H-purin-9-yl)methyl]-5-chloro-1H-indol-2-yl}methyl)-2-cyclohexylacetamide]
33 | 2230 nM | Nc1ncnc2c1ncn2Cc1cc(Cl)cc2cc(CNC(=O)C3CCOCC3)[nH]c12 [Example 126, N-({7-[(6-amino-9H-purin-9-yl)methyl]-5-chloro-1H-indol-2-yl}methyl)tetrahydro-2H-pyran-4-carboxamide]
34 | 474 nM | NCc1cc2cc(-c3ccc(F)cc3)cc(Cn3cnc4c(N)ncnc43)c2[nH]1 [Example 26, 9-{[2-(aminomethyl)-5-(4-fluorophenyl)-1H-indol-7-yl]methyl}-9H-purin-6-amine]
